Laboratory results published in patent US5986131A, “RXR selective ligands” (Hoffmann-La Roche Inc., priority 1997, dated 1999).

Key:
[1] = system: nuclear retinoic acid receptors ("RAR"); conditions: cited from earlier work
Rhino mouse utricles = assay: Rhino mouse utricle reduction activity; type: in vivo, Rhino mice; conditions: topical; for Utricle Size: 3 weeks; for Utricle size % Change from Control: ns = not statistically significant, others p<0.05
Protocol: Compounds were dissolved in 100% acetone and stored at 4° C. for the duration of the experiment under nitrogen. […] One day after the last dose, the mice were sacrificed by CO2 inhalation. […] The epidermis was then separated from the dermis.
The samples were kept in each of the above solutions for 2 hours. The skin samples were removed from the xylene and mounted on glass microscope slides. Image analysis, using the Ultimage image analysis software, was used to determine the mean diameter and area of utricles. Approximately 5 fields per sample were examined, for an average of 150 utricles per mouse measured.

[2] = system: retinoic acid X receptors ("RXR"); conditions: cited from earlier work
human sebaceous cells = assay: Antiproliferative activity on human sebocytes in vitro; type: cell-based; conditions: Homo sapiens; for IC50: 240 h, first passage cells, 10 days of exposure, read-out: Inhibition of human sebaceous cell proliferation in vitro IC50
Protocol: Sebaceous cells were isolated from adult human sebaceous glands by a combination of enzymatic and mechanical methods (Doran et al., 1991). The cells were cultured in Iscove's medium containing 10% fetal calf serum and 4 μg/ml dexamethasone on a layer of growth-arrested 3T3 mouse fibroblasts. Cells were plated in medium without the test compound and then given test compound in fresh medium 24-48 hours after the initial plating. The cultures were given fresh medium, containing the test compound, every 48 hours. On the day of harvesting, the cultures were rinsed with 0.03% EDTA in PBS, to remove only the 3T3 fibroblasts. followed by incubation in 0.05% trypsin/0.03% EDTA. The cells were suspended, mixed vigorously to prepare a single cell suspension and counted in a hemocytometer.
Stock solutions of compounds were made up as 10^-2 M solutions in 100% DMSO and stored at -20° C. in the dark. Compounds in solution were brought to room temperature and used by diluting directly into complete medium to the appropriate concentration.
The compounds of Example 12, Example 2, and Example 4 were tested for their effects on inhibiting the proliferation of first passage human sebaceous cells in vitro after 10 days of exposure to drug.

[3] = system: Hamster Ear Sebaceous Gland; assay: Effect on size of sebaceous glands of Golden Syrian hamsters; type: in vivo; design: Sebaceous Gland Size: unit not given here; conditions: 4 weeks topical dosing
Protocol: Charles River Golden Syrian male hamsters were given the desired dose in acetone. The compounds were stored at 4° C. protected from light. Fresh solutions were made up weekly.
Hamsters were dosed daily for five days, rested for two days, and dosed again for five days until 20 doses were given. The volume of solution was 50 microliters per ear.
Hamsters were sacrificed by CO2 inhalation, and the ears removed for histological evaluation. One ear was removed and the ventral surface separated from the rest of the ear. A 2 mm punch was removed 5 mm from the tip of the ear and stained in 0.1 % Sudan Black B dissolved in 100% propylene glycol overnight. After destaining, the size of sebaceous glands was quantified with a Donsanto Image Analysis System.
Data are given as the average area of 80-120 sebaceous glands per dose, as percent of the control (solvent-treated) sections.

mouse B cell = assay: Inhibition of LPS-induced mouse B cell proliferation (3H-thymidine incorporation); type: cell-based
Protocol: Single cell suspensions of mouse spleen were set up in culture in flatbottomed 96 well Microtiter trays, 0.2 ml/well of a 2×10^5 /ml cell suspension in IMDM supplemented with 10% foetal calf serum, HEPES, antibiotics and 50 μM 2-mercaptoethanol. The specific B cell mitogen E. coli lipopolysaccharide (DIFCO) (LPS) was added at 50μg/ml. Cultures were incubated at 37° C. in a humidified atmosphere and 5% CO2.
The retinoids to be tested were first titrated in triplicate from 10 nM to 10 μM and left throughout the whole culture period. […] Cyclosporin A (Sandoz AG) was used as a reference compound (from 1 nM to 1 μM).
The cultures were then harvested on glass fiber filters and the radioactivity imcorporated into DNA measured in a β-liquid scintillation counter (Betaplate, Wallac Oy, Turku, Finland).
The results are expressed as % of the response of untreated cultures. […] Retinoids were added to the cultures at the beginning of the culture period.

RXRα = target: T1, RXRα (Homo sapiens, UniProt P19793); assay: RXRα activation (transactivation); type: cell-based; conditions: Table 1; read-out: Activation ED50, RXRα
T1 sequence (P19793 1-462): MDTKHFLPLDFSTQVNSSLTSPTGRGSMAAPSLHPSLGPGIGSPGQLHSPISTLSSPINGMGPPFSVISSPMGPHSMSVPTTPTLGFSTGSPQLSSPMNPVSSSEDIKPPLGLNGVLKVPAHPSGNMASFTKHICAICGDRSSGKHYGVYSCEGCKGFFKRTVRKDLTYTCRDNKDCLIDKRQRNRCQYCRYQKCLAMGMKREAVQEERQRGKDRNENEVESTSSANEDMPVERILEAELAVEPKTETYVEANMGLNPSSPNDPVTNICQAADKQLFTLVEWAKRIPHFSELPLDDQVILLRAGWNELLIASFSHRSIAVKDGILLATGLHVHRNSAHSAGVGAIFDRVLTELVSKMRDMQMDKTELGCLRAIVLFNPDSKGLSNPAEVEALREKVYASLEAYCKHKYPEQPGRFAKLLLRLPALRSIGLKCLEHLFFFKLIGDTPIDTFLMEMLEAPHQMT
Source text: Methods essentially as described in those publications were used to determine the binding and transactivation properties of retinoids reported in the Examples herein.

HL-60 cells = assay: HL-60 differentiation (NBT reduction); type: cell-based, human; conditions: in combination with RARα retinoid
Protocol: Under the influence of retinoids, HL-60 cells (a human myeloid leukemia cell line) differentiate into granulocytes. This differentiation of HL-60 cells into granulocytes is mediated by RARα, and so provides the basis for the use of retinoids to treat leukemia.
Retinoid-induced differentiation of HL-60 cells was assayed by measuring their oxidative burst potential via the reduction of NBT (Nitroblueterstazolium) [Pick et al., J. Reticuloendothelial Soc., 30:581-593 (1981)].
HL-60 cells were maintained in RPMI 1640 medium supplemented with 10% FCS, 2mM L-glutamine, ImM sodium pyruvate, 1% non-essential amino acids, 50 U/ml penicillin and 50 μg/ml streptomycin (=RPMI/FCS).
30,000 cells/[…] of RPMI/FCS were seeded into flat-bottomed microtiter wells. 10 μl of retinoids diluted in complete medium were added at the same time to yield final concentrations betweeen 10^-11 and 10^-6 M (stock solutions of 10^-2 M in ethanol were kep at -20° C. and protected from light). After 3 days, the medium was removed with a multichannel pipette and replaced with 100 μl of NBT solution (1 mg/ml in PBS with 200 nM phorbol myristate acetate (PMA). Following an additional hour incubation at 37° C. the NBT solution was removed and 100 μl of 10% SDS in 0.01 N HCl was added. The amount of the reduced NBT was quantified photometrically at 540 nm using an automated plate reader. The mean of 3 wells was calculated. S.E.M. were between 5 and 10%.

Row | Structure (SMILES) | binding to RAR (in words) [1] | Utricle Size (Rhino mouse utricles; 0.1 μg/day) | Utricle size % Change from Control (Rhino mouse utricles; 0.1 μg/day) | Utricle Size (Rhino mouse utricles; 1 μg/day) | Utricle size % Change from Control (Rhino mouse utricles; 1 μg/day) | Utricle Size (Rhino mouse utricles; 10 μg/day) | Utricle size % Change from Control (Rhino mouse utricles; 10 μg/day) | Utricle Size (Rhino mouse utricles; 100 μg/day) | Utricle size % Change from Control (Rhino mouse utricles; 100 μg/day) | binding to RXR (in words) [2] | IC50 (human sebaceous cells) | also measured
1 | CC1=C(/C=C/C(C)=C\C=C\C(C)=C\C(=O)O)C(C)(C)CCC1 [9-cis-retinoic acid, reference compound] | also acts as a ligand for the RAR group of receptors | 8650 ± 427 μm^2 / utricle | -11% | 6926 ± 497 μm^2 / utricle | -29% | 3540 ± 354 μm^2 / utricle | -64% | 2644 ± 312 μm^2 / utricle | -73% | binds to a group of receptors known as the retinoic acid X receptors | 100 nM | 
2 | CC1=C(/C=C/C(C)=C/C=C/C(C)=C\C(=O)O)C(C)(C)CCC1 [13-cis-retinoic acid, reference compound] | bind to RARα | 9187 ± 794 μm^2 / utricle | -6% | 6400 ± 424 μm^2 / utricle | -34% | 3793 ± 368 μm^2 / utricle | -61% | 3132 ± 305 μm^2 / utricle | -68% | do not | 100 nM | Sebaceous Gland Size ([3]; 1 μg/day): 14029 ± 2977; Sebaceous gland size % Change from Control ([3]; 1 μg/day, ns = not statistically significant): -15%; Sebaceous Gland Size ([3]; 10 μg/day): 12965 ± 2029; Sebaceous gland size % Change from Control ([3]; 10 μg/day, ns = not statistically significant): -21%; Sebaceous Gland Size ([3]; 100 μg/day): 10459 ± 1302; Sebaceous gland size % Change from Control ([3]; 100 μg/day): -37%
3 | CC1=C(/C=C/C(C)=C/C=C/C(C)=C/C(=O)O)C(C)(C)CCC1 [All-trans retinoic acid, all-trans retinoic acid, reference compound] | bind to RARα |  |  |  |  |  |  |  |  | do not |  | inhibition at 0.01 µM (mouse B cell; Mus musculus, B-cell, 96 h, day 4, 10 nM, read-out: inhibition of B cell response): ~30%; IC50 (mouse B cell; alone, FIG. 4, day 3): 1 nM; effect on B cell response (mouse B cell; day 4, 1 nM): not inhibitory any longer and actually induces a minor enhancement of the response
4 | CC1(C)CCC(C)(C)c2cc(C(=O)Nc3ccc(C(=O)O)cc3)ccc21 [Compound A, reference compound] |  |  |  |  |  |  |  |  |  |  |  | EC50 (RXRα): > 10000 nM; potentiation of HL-60 differentiation (in words) (HL-60 cells): somewhat more pronounced
5 | CC1=C(/C=C/C(C)=C(Br)\C=C\C(C)=C\C(=O)O)C(C)(C)CCC1 [Example 2, (All-E)-6-Bromo-3,7-dimethyl-9-(2,6,6-trimethyl-1-cyclohexen-1-yl)-2,4,6,8-nonatetraenoic acid] |  | 9535 ± 890 μm^2 / utricle | -2% | 9616 ± 1134 μm^2 / utricle | -1% | 9049 ± 891 μm^2 / utricle | -7% | 5437 ± 615 μm^2 / utricle | -44% |  |  | inhibition at 1 µM (human sebaceous cells; 1000 nM, first experiment, read-out: inhibition of sebaceous cell growth): 70%
6 | CC1=C(/C=C/C(C)=C(Cl)\C=C\C(C)=C\C(=O)O)C(C)(C)CCC1 [Example 12, (All-E-)-6-chloro-3,7-dimethyl-9-(2,6,6-trimethyl-1-cyclohexen-1-yl)-2,4,6,8-nonatetraenoic acid] |  | 9104 ± 829 μm^2 / utricle | -7% | 9156 ± 938 μm^2 / utricle | -6% | 7634 ± 485 μm^2 / utricle | -22% | 3596 ± 300 μm^2 / utricle | -63% |  | 100 nM | 
